In paper PMC11301625, “Azobenzene-Based Photoswitchable Substrates for Advanced Mechanistic Studies of Model Haloalkane Dehalogenase Enzyme Family” (ACS Catalysis, 2024):
Read-outs that look alike come from different tables or passages of the source. Blank lines part the entries; values can stand above or below the molecule they belong to.

Assays:
LinB [1] = target: T1, LinB (Sphingobium indicum, UniProt D4Z2G1); assay: stopped-flow tryptophan fluorescence after preincubation; type: biochemical; details: 100 mM glycine pH 8.6, 37 °C; slow irreversible inhibition, substrate E-3c
T1 construct: His-tagged, expressed in E. coli BL21(DE3), Ni-NTA purified; PDB 1MJ5 given for the docking model of the same protein
T1 sequence (D4Z2G1 2-296): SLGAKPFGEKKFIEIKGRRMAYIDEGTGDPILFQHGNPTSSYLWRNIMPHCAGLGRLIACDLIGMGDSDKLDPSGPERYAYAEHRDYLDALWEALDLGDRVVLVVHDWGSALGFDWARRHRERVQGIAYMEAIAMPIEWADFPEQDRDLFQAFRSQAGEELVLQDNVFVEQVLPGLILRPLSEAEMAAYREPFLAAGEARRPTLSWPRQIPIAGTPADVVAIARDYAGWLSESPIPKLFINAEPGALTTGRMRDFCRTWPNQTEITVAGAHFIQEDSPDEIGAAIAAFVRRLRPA

DmmA [2] = target: T2, DmmA (Lyngbya majuscula, UniProt Q6DND9); assay: ITC progress curves; type: biochemical
T2 construct: gene curN; His-tagged, expressed in E. coli BL21(DE3), Ni-NTA purified; PDB 3U1T for the docking model of the same protein
T2 sequence (Q6DND9 25-341): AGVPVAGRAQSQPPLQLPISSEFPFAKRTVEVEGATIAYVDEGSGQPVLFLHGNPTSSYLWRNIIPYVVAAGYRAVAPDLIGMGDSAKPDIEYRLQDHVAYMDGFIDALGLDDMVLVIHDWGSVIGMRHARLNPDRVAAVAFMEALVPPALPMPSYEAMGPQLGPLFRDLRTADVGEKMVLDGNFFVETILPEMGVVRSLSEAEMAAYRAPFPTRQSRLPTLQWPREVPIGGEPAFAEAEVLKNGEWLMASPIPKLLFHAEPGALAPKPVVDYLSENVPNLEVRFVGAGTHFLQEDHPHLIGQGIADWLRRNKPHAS
Source text: ITC progress curves on DmmA | Z-isomer of substrate 3a binds to the enzyme’s active site and functions as a competitive inhibitor

DmmA [3] = target: T2, DmmA; assay: global fit of stopped-flow fluorescence/absorbance and ITC; type: biochemical; details: 100 mM glycine pH 8.6, 37 °C; enzyme-product complex after isomerization (EP2); read-out: K5
Source text: global fit of stopped-flow fluorescence/absorbance and ITC on DmmA

LinB [4] = target: T1, LinB; assay: as above; type: biochemical; details: 100 mM glycine pH 8.6, 37 °C
Source text: global fit of stopped-flow fluorescence/absorbance and ITC on LinB

ITC progress curves = substrate: C[N+](C)(C)Cc1ccc(/N=N/c2cccc(CCl)c2)cc1; assay: ITC progress curves; type: biochemical, Lyngbya majuscula; details: 100 mM glycine pH 8.6, 37 °C

Molecule: C[N+](C)(C)Cc1ccc(/N=N\c2cccc(CCl)c2)cc1 (mixture of isomers) [3c, Z-3c]
- stopped-flow tryptophan fluorescence after preincubation (LinB [1]): the inhibition effect of Z-3c was significantly more prominent in the case of LinB

- Ki (DmmA [2]): 0.035 ± 0.001 µM
Molecule: COCCOCCOc1ccc(/N=N\c2cccc(CCl)c2)cc1 [3a, Z-3a]

- Kd (DmmA [3]): 3.55 ± 1.01 µM
- Kd (LinB [4]; enzyme-product complex (EP), read-out: K4): 11.6 ± 0.1 µM
Molecule: C[N+](C)(C)Cc1ccc(/N=N/c2cccc(CO)c2)cc1 [3c, E-3c-OH]

- Kd (LinB [4]; equilibrium dissociation constant of enzyme-substrate complex, read-out: K1): 7.39 ± 0.03 µM
Molecule: C[N+](C)(C)Cc1ccc(/N=N/c2cccc(CCl)c2)cc1 [3c, E-3c]

B1: DmmA (Lyngbya majuscula) (protein)
chain: AGVPVAGRAQSQPPLQLPISSEFPFAKRTVEVEGATIAYVDEGSGQPVLFLHGNPTSSYLWRNIIPYVVAAGYRAVAPDLIGMGDSAKPDIEYRLQDHVAYMDGFIDALGLDDMVLVIHDWGSVIGMRHARLNPDRVAAVAFMEALVPPALPMPSYEAMGPQLGPLFRDLRTADVGEKMVLDGNFFVETILPEMGVVRSLSEAEMAAYRAPFPTRQSRLPTLQWPREVPIGGEPAFAEAEVLKNGEWLMASPIPKLLFHAEPGALAPKPVVDYLSENVPNLEVRFVGAGTHFLQEDHPHLIGQGIADWLRRNKPHAS
notes: His-tagged, expressed in E. coli BL21(DE3), Ni-NTA purified; PDB 3U1T for the docking model of the same protein
- Km (ITC progress curves): 850 ± 40 µM
- kcat (ITC progress curves): 0.50 ± 0.03 s⁻¹
